Conditions: 298 K

Structure (SMILES) | solubility (mole fraction) (in n-octanol) | solubility (mole fraction) (in water) | solubility (mole fraction) (in n-hexane)
Nc1ccc(S(=O)(=O)Nc2ccc([N+](=O)[O-])cc2Br)cc1 | 0.000308 | 3.01e-07 | 
Nc1ccc(S(=O)(=O)Nc2cc(Cl)ccc2Cl)cc1 | 0.000529 | 7.25e-07 | 4.69e-06
Cc1cc(N)ccc1S(=O)(=O)Nc1ccc(Cl)cc1 | 0.00356 | 6.71e-07 | 4.59e-06
Cc1cc(N)ccc1S(=O)(=O)Nc1ccccc1Cl | 0.000115 | 1.57e-07 | 1.08e-06
CCOC(=O)c1ccc(NS(=O)(=O)c2ccccc2)nc1 | 0.0006 | 1.24e-06 | 
Nc1ccc(S(=O)(=O)Nc2ccccc2Cl)c(Cl)c1 | 7.4e-05 | 1.19e-07 | 
O=[N+]([O-])c1ccccc1NS(=O)(=O)c1ccccc1 | 0.0106 | 1.78e-06 | 
Nc1ccc(S(=O)(=O)Nc2ccc(I)cc2)cc1 | 0.00163 | 5.44e-07 | 
Nc1ccc(S(=O)(=O)N(c2ccccc2)c2ccccc2)cc1 | 0.000551 | 4.84e-07 | 5.4e-06
Nc1ccc(S(=O)(=O)Nc2ccc(Cl)c(Cl)c2)cc1 | 0.000422 | 2.05e-07 | 
O=S(=O)(Nc1ccccc1Cl)c1ccccc1 | 0.0036 | 8.69e-07 | 7.73e-06
Cc1cc(Cl)ccc1NS(=O)(=O)c1ccc(N)cc1 | 0.00489 | 7.72e-07 | 
O=S(=O)(Nc1ncccc1Cl)c1ccccc1 | 0.00282 | 1.17e-05 | 6.58e-05
CCN(CC)S(=O)(=O)c1ccc(N)cc1 | 0.0108 | 4.27e-05 | 2.41e-05
CCOc1ccc(NS(=O)(=O)c2ccc([N+](=O)[O-])cc2)cc1 | 0.00125 | 3.41e-07 | 3.95e-06
O=[N+]([O-])c1ccc(NS(=O)(=O)c2ccccc2)cc1 | 0.0116 | 2.11e-06 | 3.16e-06
Nc1ccc(S(=O)(=O)Nc2ccc([N+](=O)[O-])cc2)cc1 | 0.003 | 3.65e-06 | 
COc1ccc(NS(=O)(=O)c2ccc(N)cc2)cc1 | 0.000233 | 1.32e-06 | 2.24e-06

Structure (SMILES) | solubility (mole fraction) (in n-octanol) | solubility (mole fraction) (in water) | solubility (mole fraction) (in n-hexane)
Nc1ccc(S(=O)(=O)Nc2ccc(Cl)cc2)c(Cl)c1 | 0.00248 | 4.72e-07 | 
Cc1ccc(Cl)cc1NS(=O)(=O)c1ccc(N)cc1 | 0.00188 | 1.61e-06 | 2.94e-06
Nc1ccc(S(=O)(=O)Nc2cc(Cl)c(Cl)cc2Cl)cc1 | 0.00109 | 2.51e-07 | 6.32e-06
CCc1ccc(NS(=O)(=O)c2ccc(N)cc2)cc1 | 0.00104 | 5.09e-07 | 2.77e-06
CNS(=O)(=O)c1ccc(N)cc1 | 0.00486 | 0.00103 | 
Nc1ccc(S(=O)(=O)Nc2cccc(Cl)c2Cl)cc1 | 0.000681 | 3.32e-07 | 6.05e-06
Cc1ccc(NS(=O)(=O)c2ccc([N+](=O)[O-])cc2)nc1 | 3.38e-05 | 1.13e-06 | 
CN(C)S(=O)(=O)c1ccc(N)cc1 | 0.000873 | 3.21e-05 | 2.9e-06
Cc1cc(N)ccc1S(=O)(=O)Nc1ccccc1[N+](=O)[O-] | 0.000198 | 5.18e-07 | 3.22e-06
Cc1ccc(NS(=O)(=O)c2ccc(N)cc2)cc1Cl | 0.000552 | 1.53e-07 | 
N#Cc1ccc(NS(=O)(=O)c2ccc(N)cc2)cc1 | 0.00129 | 5.47e-06 | 
Cc1ccc(NS(=O)(=O)c2ccc(N)cc2)c(Cl)c1 | 0.00158 | 7.65e-07 | 2.43e-06
O=S(=O)(Nc1cccnc1Cl)c1ccccc1 | 0.00151 |  | 2.63e-05
O=S(=O)(Nc1ccccc1)c1ccccc1 | 0.0335 | 8.49e-06 | 0.000101
O=[N+]([O-])c1ccc(S(=O)(=O)Nc2nccs2)cc1 |  | 4.23e-06 | 
Nc1ccc(S(=O)(=O)Nc2ccc(Cl)cc2)cc1 | 0.00145 | 1.19e-06 | 
O=S(=O)(Nc1ccc(Cl)cc1)c1ccccc1 | 0.0421 | 1.68e-06 | 1.37e-06

From BigSolDB 2.1
